Among the data in patent US8946438B2, “Benzamides, production thereof, and use thereof as medicaments” (Boehringer Ingelheim International GmbH, priority 2008, dated 2015) are inhibition values, retold here.

The assay has as its target p38 MAP-kinase (Homo sapiens, UniProt Q16539). The experiment in a line: Enzymatic assay: inhibition of p38 MAP-kinase (phosphorylation of GST-tagged ATF2, chemoluminescence bead readout). The note with it: inhibitor 1 μM; activated p38 MAP-kinase 1 nM; 4 h preincubation; ATP 100 μM; ATF2 10 nM; read-out: % inhibitory effect at 1 μM. The assay is classed as biochemical. The gist of the method:
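Activated human p38 MAP-kinase (1 nM) preincubated 4 h at ambient temperature with compound at 1 μM in HEPES pH 7, MgCl2, DTT, Tween20. Then reacted 1 h with GST-ATF2 (10 nM) and ATP (100 μM). Phospho-ATF2 read by bead chemoluminescence at 520-620 nm, given as % inhibition at 1 μM versus kinase-free background.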

p38 MAP-kinase, sequence (Q16539 whole entry): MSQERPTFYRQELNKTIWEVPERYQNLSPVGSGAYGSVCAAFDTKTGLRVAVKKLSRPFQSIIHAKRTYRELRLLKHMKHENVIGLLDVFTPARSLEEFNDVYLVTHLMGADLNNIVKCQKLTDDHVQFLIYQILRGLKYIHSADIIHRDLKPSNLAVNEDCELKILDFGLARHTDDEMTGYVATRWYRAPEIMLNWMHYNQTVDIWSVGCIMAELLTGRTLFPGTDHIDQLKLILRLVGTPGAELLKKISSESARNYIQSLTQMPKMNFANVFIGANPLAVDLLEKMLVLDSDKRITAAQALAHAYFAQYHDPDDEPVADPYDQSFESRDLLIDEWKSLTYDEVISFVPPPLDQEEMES

Take `COc1c(NC(=O)c2ccc(Cl)c(Oc3ccnc(CNCCN(C)C)c3)c2)cc(C(C)(C)C)cc1NS(C)(=O)=O` [8(34), N-(5-tert-butyl-3-methanesulphonylamino-2-methoxy-phenyl)-4-chloro-3-{2-[(2-dimethylamino-ethylamino)-methyl]-pyridin-4-yloxy}-benzamide]: the inhibition at 1 µM stood at 99.3%.
Under `COc1c(NC(=O)c2ccc(Cl)c(Oc3ccnc(CN4CCCN(C)CC4)n3)c2)cc(C(C)(C)C)cc1NS(C)(=O)=O` [8(35), N-(5-tert-butyl-3-methanesulphonylamino-2-methoxy-phenyl)-4-chloro-3-[2-(4-methyl-[1,4]diazepan-1-ylmethyl)-pyrimidin-4-yloxy]-benzamide] stands 98.6%; under `COc1c(NC(=O)c2ccc(Cl)c(Oc3ccnc(CN(C)CCN(C)C)n3)c2)cc(C(C)(C)C)cc1NS(C)(=O)=O` [8(36), N-(5-tert-butyl-3-methanesulphonylamino-2-methoxy-phenyl)-4-chloro-3-(2-{[(2-dimethylamino-ethyl)-methyl-amino]-methyl}-pyrimidin-4-yloxy)-benzamide], 82.6%.
Under `COc1c(NC(=O)c2ccc(Cl)c(Oc3ccnc(CNCCN(C)C)n3)c2)cc(C(C)(C)C)cc1NS(C)(=O)=O` [8(37), N-(5-tert-butyl-3-methanesulphonylamino-2-methoxy-phenyl)-4-chloro-3-{2-[(2-dimethylamino-ethylamino)-methyl]-pyrimidin-4-yloxy}-benzamide] stands 91.3%.
For the molecule `COc1c(NC(=O)c2ccc(Cl)c(Oc3cc(CN4CCCN(C)CC4)ncn3)c2)cc(C(C)(C)C)cc1NS(C)(=O)=O` [8(38), N-(5-tert-butyl-3-methanesulphonylamino-2-methoxy-phenyl)-4-chloro-3-[6-(4-methyl-[1,4]diazepan-1-ylmethyl)-pyrimidin-4-yloxy]-benzamide], the inhibition at 1 µM came out at 98.8%.
Turning to `COc1c(NC(=O)c2ccc(Cl)c(Oc3ccnc(CN4CCCN(C)CC4)c3)c2)cc(C(C)(C)C)cc1NS(C)(=O)=O` [8(39), N-(5-tert-butyl-3-methanesulphonylamino-2-methoxy-phenyl)-4-chloro-3-[2-(4-methyl-[1,4]diazepan-1-ylmethyl)-pyridin-4-yloxy]-benzamide], the inhibition at 1 µM is 98.9%.
In the case of `COc1c(NC(=O)c2ccc(C)c(Oc3ccnc(CC4CCN(C)CC4)n3)c2)cc(C(C)(C)C)cc1NS(C)(=O)=O` [9(1), N-(5-tert-butyl-3-methanesulphonylamino-2-methoxy-phenyl)-4-methyl-3-[2-(1-methyl-piperidin-4-ylmethyl)-pyrimidin-4-yloxy]-benzamide], the inhibition at 1 µM was 99.9%.
`COc1c(NC(=O)c2ccc(C)c(Oc3ccnc(CC4CCN(C)CC4)c3)c2)cc(C(C)(C)C)cc1NS(C)(=O)=O` [9(2), N-(5-tert-butyl-3-methanesulphonylamino-2-methoxy-phenyl)-4-methyl-3-[2-(1-methyl-piperidin-4-ylmethyl)-pyridin-4-yloxy]-benzamide]: the inhibition at 1 µM was 98.5%.
Regarding `CCCCS(=O)(=O)Nc1cc(C(C)(C)C)cc(NC(=O)c2ccc(C)c(Oc3ccnc(CC4CCNCC4)c3)c2)c1OC` [11(1), N-[3-(butan-1-sulphonylamino)-5-tert-butyl-2-methoxy-phenyl]-4-methyl-3-(2-piperidin-4-ylmethyl-pyridin-4-yloxy)-benzamide], the inhibition at 1 µM is 99.4%.
In the case of `CCCCC(=O)Nc1cc(C(C)(C)C)cc(NC(=O)c2ccc(C)c(Oc3ccnc(CC4CCNCC4)c3)c2)c1OC` [11(2), N-(5-tert-butyl-2-methoxy-3-pentanoylamino-phenyl)-4-methyl-3-(2-piperidin-4-ylmethyl-pyridin-4-yloxy)-benzamide] it was 95.4%; in that of `COc1c(NC(=O)c2ccc(C)c(Oc3ccnc(CC4CCNCC4)c3)c2)cc(C(C)(C)C)cc1S(C)(=O)=O` [11(3), N-(5-tert-butyl-3-methanesulphonyl-2-methoxy-phenyl)-4-methyl-3-(2-piperidin-4-ylmethyl-pyridin-4-yloxy)-benzamide], 99.5%.
Under `COc1c(NC(=O)CC(C)C)cc(C(C)(C)C)cc1NC(=O)c1ccc(C)c(Oc2ccnc(CC3CCNCC3)c2)c1` [11(4), N-[5-tert-butyl-2-methoxy-3-(3-methyl-butyrylamino)-phenyl]-4-methyl-3-(2-piperidin-4-ylmethyl-pyridin-4-yloxy)-benzamide] stands 95.1%; under `COc1c(NC(=O)c2ccc(Cl)c(Oc3cc(CN4CCN(C)CC4)ncn3)c2)cc(C(C)(C)C)cc1NS(C)(=O)=O` [12(1), N-(5-tert-butyl-3-methanesulphonylamino-2-methoxy-phenyl)-4-chloro-3-[6-(4-methyl-piperazin-1-ylmethyl)-pyrimidin-4-yloxy]-benzamide], 99.4%.
On to `COc1c(NC(=O)c2ccc(Cl)c(Oc3cc(CC4CCN(C)CC4)ncn3)c2)cc(C(C)(C)C)cc1NS(C)(=O)=O` [12(2), N-(5-tert-butyl-3-methanesulphonylamino-2-methoxy-phenyl)-4-chloro-3-[6-(1-methyl-piperidin-4-ylmethyl)-pyrimidin-4-yloxy]-benzamide], for which the inhibition at 1 µM stood at 98.7%.
In the case of `COc1c(NC(=O)c2ccc(Cl)c(Oc3ccnc(CC4CCN(C)CC4)n3)c2)cc(C(C)(C)C)cc1NS(C)(=O)=O` [12(3), N-(5-tert-butyl-3-methanesulphonylamino-2-methoxy-phenyl)-4-chloro-3-[2-(1-methyl-piperidin-4-ylmethyl)-pyrimidin-4-yloxy]-benzamide] it was 99.6%; in that of `COc1c(NC(=O)c2ccc(Cl)c(Oc3ccnc(CN4CCN(C)CC4)c3)c2)cc(C(C)(C)C)cc1NS(C)(=O)=O` [12(4), N-(5-tert-butyl-3-methanesulphonylamino-2-methoxy-phenyl)-4-chloro-3-[2-(4-methyl-piperazin-1-ylmethyl)-pyridin-4-yloxy]-benzamide], 99.3%; in that of `COc1c(NC(=O)c2ccc(Cl)c(Oc3ccnc(CC4CCN(C)CC4)c3)c2)cc(C(C)(C)C)cc1NS(C)(=O)=O` [12(5), N-(5-tert-butyl-3-methanesulphonylamino-2-methoxy-phenyl)-4-chloro-3-[2-(1-methyl-piperidin-4-ylmethyl)-pyridin-4-yloxy]-benzamide], 99.5%.
`COc1c(NC(=O)c2ccc(C)c(Oc3ccnc(CC4CCCN(C)CC4)n3)c2)cc(C(C)(C)C)cc1NS(C)(=O)=O` (stereo not drawn) [12(6), N-(5-tert-butyl-3-methanesulphonylamino-2-methoxy-phenyl)-4-methyl-3-[2-(1-methyl-azepan-4-ylmethyl)-pyrimidin-4-yloxy]-benzamide]: the inhibition at 1 µM stood at 99.6%.
In the case of `COc1c(NC(=O)c2ccc(C)c(Oc3cc(CC4CCCN(C)CC4)ncn3)c2)cc(C(C)(C)C)cc1NS(C)(=O)=O` (stereo not drawn) [12(7), N-(5-tert-butyl-3-methanesulphonylamino-2-methoxy-phenyl)-4-methyl-3-[6-(1-methyl-azepan-4-ylmethyl)-pyrimidin-4-yloxy]-benzamide] it was 99.8%; in that of `COc1c(NC(=O)c2ccc(C)c(Oc3ccnc(CN4CCN(C)CC4)n3)c2)cc(C(C)(C)C)cc1[S+](C)[O-]` (stereo not drawn) [13(1), N-(5-tert-butyl-3-methanesulphinyl-2-methoxy-phenyl)-4-methyl-3-[2-(4-methyl-piperazin-1-ylmethyl)-pyrimidin-4-yloxy]-benzamide], 97%.
On to `COc1c(NC(=O)c2ccc(C)c(Oc3cc[n+]([O-])cc3)c2)cc(C(C)(C)C)cc1NS(C)(=O)=O` [Example 1, N-(5-tert-butyl-3-methanesulphonylamino-2-methoxy-phenyl)-4-methyl-3-(1-oxy-pyridin-4-yloxy)-benzamide], for which the inhibition at 1 µM is 90.8%.
In the case of `COc1c(NC(=O)c2ccc(C)c(Oc3ccncc3)c2)cc(C(C)(C)C)cc1NS(C)(=O)=O` [Example 2, N-(5-tert-butyl-3-methanesulphonylamino-2-methoxy-phenyl)-4-methyl-3-(pyridin-4-yloxy)-benzamide] it was 97.7%.
For `CNc1nccc(Oc2cc(C(=O)Nc3cc(C(C)(C)C)cc(NS(C)(=O)=O)c3OC)ccc2C)n1` [Example 3, N-(5-tert-butyl-3-methanesulphonylamino-2-methoxy-phenyl)-4-methyl-3-(2-methylamino-pyrimidin-4-yloxy)-benzamide], the inhibition at 1 µM amounted to 98.1%.
On to `COc1c(NC(=O)c2ccc(C)c(Oc3ccnc(NCCN4CCCC4)n3)c2)cc(C(C)(C)C)cc1NS(C)(=O)=O` [Example 4, N-(5-tert-butyl-3-methanesulphonylamino-2-methoxy-phenyl)-4-methyl-3-[2-(2-pyrrolidin-1-yl-ethylamino)-pyrimidin-4-yloxy]-benzamide], for which the inhibition at 1 µM was 97.7%.
Take `COc1c(NC(=O)c2ccc(C)c(Oc3ccnc(N4CCNCC4)n3)c2)cc(C(C)(C)C)cc1NS(C)(=O)=O` [Example 5, N-(5-tert-butyl-3-methanesulphonylamino-2-methoxy-phenyl)-4-methyl-3-(2-piperazin-1-yl-pyrimidin-4-yloxy)-benzamide x trifluoroacetic acid]: the inhibition at 1 µM came out at 99%.
In the case of `COc1c(NC(=O)c2cc(C)cc(Oc3ccncc3)c2)cc(C(C)(C)C)cc1NS(C)(=O)=O` [Example 6, N-(5-tert-butyl-3-methanesulphonylamino-2-methoxy-phenyl)-3-methyl-5-(pyridin-4-yloxy)-benzamide] it was 94.4%; in that of `CNC(=O)c1cc(Oc2cc(C(=O)Nc3cc(C(C)(C)C)cc(NS(C)(=O)=O)c3OC)ccc2C)ncn1` [Example 7, 6-[5-(5-tert-butyl-3-methanesulphonylamino-2-methoxy-phenylaminocarbonyl)-2-methyl-phenoxy]-pyrimidin-4-carboxylic acid-methylamide], 95.6%.
